Drawing on PubChem BioAssay (NCI), this text covers GI50 and TGI for 14 molecules.

Among the test systems are CCRF-CEM leukemia; EKVX NSCLC; IGROV1 ovarian; LOX IMVI melanoma; NCI-H460 lung; NCI/ADR-RES ovarian; OVCAR-4 ovarian; SNB-19 CNS; UO-31 renal; RXF 393 renal.
Common to all, as to assay: NCI anticancer screen, dose series, 48 h

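A five-concentration, 48-hour dose response in 96-well plates underlies each endpoint, interpolated linearly between surrounding concentrations. GI50: concentration for 50% inhibition of growth. TGI is the concentration that stops growth completely.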

Consider `Cc1nc2sc(C(=O)Nc3cccc(Cl)c3C)c(N)c2cc1C(O)c1ccccc1` (stereo not drawn), for which the GI50 is 0.0392 µM in the experiment with CCRF-CEM leukemia; 0.268 µM with EKVX NSCLC; 0.0532 µM in the experiment with IGROV1 ovarian; 0.0599 µM with LOX IMVI melanoma; 0.0347 µM in the experiment on NCI-H460 lung; 0.0318 µM with NCI/ADR-RES ovarian. The GI50 in the experiment on OVCAR-4 ovarian was 0.246 µM; with SNB-19 CNS it was 0.0604 µM; with UO-31 renal it was 0.0985 µM. Besides, the TGI in the experiment on CCRF-CEM leukemia is more than 100 µM; with EKVX NSCLC, 21.4 µM; in the experiment with IGROV1 ovarian it was 12.7 µM; in the experiment with LOX IMVI melanoma, 10.9 µM; with NCI-H460 lung it was 0.486 µM; with NCI/ADR-RES ovarian, 1.64 µM. In addition, the TGI in the experiment with OVCAR-4 ovarian came to 26.7 µM; in the experiment with SNB-19 CNS, 29.1 µM; with UO-31 renal it was 12.6 µM.
For the molecule `Nc1ncc(-c2ccc3ncnc(N4CCc5cc(F)c(Cl)cc54)c3c2)cc1C(F)(F)F`, the GI50 in the experiment with CCRF-CEM leukemia is 2.68 µM; in the experiment with NCI-H460 lung, 1.39 µM; with NCI/ADR-RES ovarian, 2.05 µM; with OVCAR-4 ovarian it was 1.74 µM; in the experiment with RXF 393 renal, 0.274 µM; in the experiment on SNB-19 CNS, 2.62 µM. Besides, the GI50 with UO-31 renal was 0.33 µM. Moreover, the TGI with CCRF-CEM leukemia is more than 100 µM; in the experiment with NCI-H460 lung, more than 100 µM; with NCI/ADR-RES ovarian, more than 100 µM; in the experiment on OVCAR-4 ovarian, 27.9 µM; in the experiment on RXF 393 renal it was 1.53 µM; with SNB-19 CNS, more than 100 µM. The same molecule came in with a TGI with UO-31 renal of more than 100 µM.
As to `Cc1ccc(Nn2c(SCC(=O)Nc3nc(-c4ccccc4)cs3)nc(C)c2C)cc1`, the GI50 was 1.39 µM in the experiment with EKVX NSCLC; 4.59 µM in the experiment on IGROV1 ovarian; 3.32 µM in the experiment with LOX IMVI melanoma; 3.88 µM in the experiment with NCI-H460 lung; 3.04 µM in the experiment with NCI/ADR-RES ovarian; 2.13 µM with OVCAR-4 ovarian. The results for the GI50 in the experiment with SNB-19 CNS and with UO-31 renal were 7.5 µM and 2.89 µM, respectively. Further, the TGI is 5.61 µM with EKVX NSCLC; more than 100 µM in the experiment on IGROV1 ovarian; 19.3 µM with LOX IMVI melanoma; 16.5 µM in the experiment on NCI-H460 lung; 22.2 µM with NCI/ADR-RES ovarian; more than 100 µM in the experiment on OVCAR-4 ovarian. Also, the TGI in the experiment with SNB-19 CNS and with UO-31 renal was more than 100 µM throughout.
`COc1ccccc1N1CCN(CC(O)Cn2c(=O)c3c(OC)nc(C)cc3c(=O)n2-c2ccccc2)CC1` (stereo not drawn): the GI50 is more than 100 µM in the experiment with CCRF-CEM leukemia; 66.1 µM with EKVX NSCLC; 41 µM in the experiment on IGROV1 ovarian; 30.5 µM with LOX IMVI melanoma; more than 100 µM in the experiment on NCI-H460 lung; 87.9 µM in the experiment on NCI/ADR-RES ovarian. Besides, the values for the GI50 in the experiment with OVCAR-4 ovarian, in the experiment on SNB-19 CNS and with UO-31 renal were more than 100 µM, 25.5 µM and more than 100 µM, respectively. Also, the TGI with CCRF-CEM leukemia, in the experiment on EKVX NSCLC, in the experiment on IGROV1 ovarian, with LOX IMVI melanoma, in the experiment with NCI-H460 lung and with NCI/ADR-RES ovarian was more than 100 µM each time. Moreover, the TGI in the experiment with OVCAR-4 ovarian, in the experiment on SNB-19 CNS and in the experiment with UO-31 renal was more than 100 µM throughout.
Take `C=C(C)C1Cc2cc(C(C)=O)ccc2O1` (stereo not drawn): the TGI in the experiment with CCRF-CEM leukemia, with EKVX NSCLC, in the experiment on IGROV1 ovarian, in the experiment with LOX IMVI melanoma, with NCI-H460 lung and with NCI/ADR-RES ovarian was more than 100 µM throughout. For the same molecule, the TGI in the experiment with OVCAR-4 ovarian, with SNB-19 CNS and in the experiment with UO-31 renal was more than 100 µM each time.
For `NC1=CC(=O)C(=O)c2ccccc21`, the GI50 with EKVX NSCLC was 18.3 µM; in the experiment with IGROV1 ovarian it was 19.7 µM; in the experiment on LOX IMVI melanoma, 15.9 µM; in the experiment on NCI-H460 lung, 33.8 µM; in the experiment on NCI/ADR-RES ovarian, 12.7 µM; with RXF 393 renal it was 24.3 µM. In addition, the GI50 in the experiment on SNB-19 CNS was 20.4 µM; in the experiment on UO-31 renal, 11.5 µM. Further, the TGI is 55.8 µM with EKVX NSCLC; 39.5 µM in the experiment with IGROV1 ovarian; 39.7 µM in the experiment with LOX IMVI melanoma; more than 100 µM in the experiment on NCI-H460 lung; 53.3 µM in the experiment with NCI/ADR-RES ovarian; 71.5 µM in the experiment on RXF 393 renal. Also, the TGI in the experiment with SNB-19 CNS was found to be 79.9 µM; with UO-31 renal, 35.6 µM.
On to `Nc1ccccc1-n1c2c(c3ccccc3c1=O)C(=O)c1ccccc1-2`, for which the TGI with CCRF-CEM leukemia is more than 100 µM; in the experiment with EKVX NSCLC, more than 100 µM; in the experiment with IGROV1 ovarian, more than 100 µM; in the experiment with LOX IMVI melanoma, more than 100 µM; with NCI-H460 lung, more than 100 µM; in the experiment with NCI/ADR-RES ovarian, 51.3 µM. Moreover, the TGI in the experiment with OVCAR-4 ovarian is 82.7 µM; in the experiment on SNB-19 CNS it was 23.8 µM; with UO-31 renal, 33.9 µM.
With `O=C(Oc1c(Cl)c(Cl)c(Cl)c(Cl)c1Cl)C1CCCN1C(=O)OCc1ccccc1` (stereo not drawn), the GI50 is 3.01 µM in the experiment on CCRF-CEM leukemia; 4 µM in the experiment on IGROV1 ovarian; 2.85 µM with LOX IMVI melanoma; 3.29 µM in the experiment on NCI-H460 lung; 3.15 µM in the experiment with NCI/ADR-RES ovarian; 2.66 µM in the experiment on OVCAR-4 ovarian. Besides, the GI50 was 3.94 µM in the experiment with RXF 393 renal, 3.23 µM in the experiment with SNB-19 CNS and 2.9 µM with UO-31 renal. The TGI in the experiment with CCRF-CEM leukemia was determined as 14.3 µM; in the experiment with IGROV1 ovarian it was 22 µM; with LOX IMVI melanoma, 8.6 µM; in the experiment with NCI-H460 lung it was 10.6 µM; in the experiment with NCI/ADR-RES ovarian, 11.2 µM; in the experiment with OVCAR-4 ovarian it was 10.6 µM. Besides, the TGI was 15.4 µM in the experiment with RXF 393 renal, 13.2 µM in the experiment with SNB-19 CNS and 12.3 µM in the experiment with UO-31 renal.
As for `O=CCC(O)C(O)C(O)CO` (stereo not drawn), the GI50 in the experiment with CCRF-CEM leukemia, with EKVX NSCLC, with IGROV1 ovarian, in the experiment with LOX IMVI melanoma, with NCI-H460 lung and with NCI/ADR-RES ovarian was more than 100 µM in each case. Besides, the GI50 in the experiment with OVCAR-4 ovarian, in the experiment on SNB-19 CNS and in the experiment on UO-31 renal was more than 100 µM in each case. The TGI with CCRF-CEM leukemia, in the experiment with EKVX NSCLC, with IGROV1 ovarian, with LOX IMVI melanoma, in the experiment on NCI-H460 lung and with NCI/ADR-RES ovarian was more than 100 µM each time. Also, the TGI in the experiment on OVCAR-4 ovarian, in the experiment on SNB-19 CNS and in the experiment on UO-31 renal was more than 100 µM throughout.
On to `COc1ccc2c(ccc3oc([N+](=O)[O-])cc32)c1`, for which the GI50 with CCRF-CEM leukemia was 0.09 µM; in the experiment with IGROV1 ovarian it was 0.199 µM; in the experiment with LOX IMVI melanoma it was 0.0551 µM; with NCI-H460 lung, 0.181 µM; in the experiment with NCI/ADR-RES ovarian it was 0.177 µM; in the experiment with OVCAR-4 ovarian it was 0.422 µM. Further, the GI50 in the experiment with RXF 393 renal is 0.0702 µM; with SNB-19 CNS it was 0.294 µM; with UO-31 renal it was 0.224 µM. Further, the TGI in the experiment with CCRF-CEM leukemia was more than 40.7 µM; in the experiment with IGROV1 ovarian, 3.47 µM; with LOX IMVI melanoma, 0.312 µM; with NCI-H460 lung, 0.85 µM; with NCI/ADR-RES ovarian, 1.05 µM; in the experiment with OVCAR-4 ovarian, 2.01 µM. In addition, the TGI in the experiment on RXF 393 renal was 0.223 µM; in the experiment on SNB-19 CNS, 2.96 µM; in the experiment on UO-31 renal, 0.763 µM.
Regarding `O=C1c2ccccc2-c2c1c1ccc([N+](=O)[O-])cc1c(=O)n2CCN1CCOCC1`, the GI50 is 20.1 µM with CCRF-CEM leukemia; more than 100 µM with EKVX NSCLC; more than 100 µM with IGROV1 ovarian; 37.8 µM in the experiment on LOX IMVI melanoma; 78.4 µM with NCI-H460 lung; more than 100 µM in the experiment with NCI/ADR-RES ovarian. The results for the GI50 in the experiment on OVCAR-4 ovarian, in the experiment with SNB-19 CNS and in the experiment on UO-31 renal were more than 100 µM, 79.2 µM and more than 100 µM, respectively. The TGI in the experiment on CCRF-CEM leukemia, in the experiment on EKVX NSCLC, with IGROV1 ovarian, with LOX IMVI melanoma, in the experiment on NCI-H460 lung and with NCI/ADR-RES ovarian was more than 100 µM throughout. In addition, the TGI in the experiment with OVCAR-4 ovarian, with SNB-19 CNS and with UO-31 renal was more than 100 µM throughout.
With `O=C1Nc2cc(-c3ccc(O)cc3)ccc2/C1=C/c1ccc[nH]1`, the GI50 with CCRF-CEM leukemia was 0.154 µM; with IGROV1 ovarian it was 0.327 µM; in the experiment with LOX IMVI melanoma, 0.0481 µM; in the experiment on NCI/ADR-RES ovarian, 0.251 µM; in the experiment on OVCAR-4 ovarian, 0.302 µM; with RXF 393 renal it was 0.826 µM. Moreover, the results for the GI50 in the experiment with SNB-19 CNS and in the experiment on UO-31 renal were 1.06 µM and 0.13 µM, respectively. For the same molecule, the TGI in the experiment on CCRF-CEM leukemia was more than 100 µM; in the experiment on IGROV1 ovarian it was 7.22 µM; with LOX IMVI melanoma it was 9.77 µM; in the experiment with NCI/ADR-RES ovarian it was more than 100 µM; in the experiment with OVCAR-4 ovarian, more than 51.3 µM; with RXF 393 renal, 2.45 µM. Moreover, the TGI in the experiment on SNB-19 CNS was more than 100 µM; in the experiment with UO-31 renal, 2.06 µM.
Regarding `Nc1n[nH]c2cc(F)c([C@@H]3Nc4c(F)cc5[nH]ncc5c4[C@H]4C5CCC(C5)[C@@H]34)cc12` (stereo partly drawn), the GI50 with CCRF-CEM leukemia is 0.127 µM; in the experiment with EKVX NSCLC, 0.167 µM; in the experiment with IGROV1 ovarian it was 0.13 µM; with LOX IMVI melanoma, 0.144 µM; in the experiment with NCI-H460 lung, 0.117 µM; with NCI/ADR-RES ovarian it was 0.14 µM. Further, the GI50 in the experiment on OVCAR-4 ovarian was 0.566 µM; in the experiment on SNB-19 CNS it was 0.134 µM; with UO-31 renal, 0.209 µM. The TGI was determined as 28.7 µM with CCRF-CEM leukemia; 23.4 µM with EKVX NSCLC; 5.04 µM in the experiment with IGROV1 ovarian; 4.41 µM with LOX IMVI melanoma; 3.57 µM with NCI-H460 lung; 5.67 µM in the experiment with NCI/ADR-RES ovarian. Besides, the values for the TGI with OVCAR-4 ovarian, with SNB-19 CNS and with UO-31 renal were 33.3 µM, 14.9 µM and 10.8 µM, respectively.
Take `C#CCn1c2c(c3ccccc3c1=O)C(=O)c1ccccc1-2`: the TGI in the experiment on CCRF-CEM leukemia was more than 100 µM; with EKVX NSCLC it was 58.8 µM; in the experiment on IGROV1 ovarian, 80.7 µM; in the experiment with LOX IMVI melanoma it was more than 100 µM; in the experiment with NCI/ADR-RES ovarian, 88.7 µM; in the experiment with OVCAR-4 ovarian, 33.1 µM. This molecule registered a TGI with UO-31 renal of 13.9 µM.
